According to patent US10035780B2, “Quinazoline scaffold based compounds, pharmaceutical compositions and methods of use thereof” (TECHNION RESEARCH & DEVELOPMENT FOUNDATION LTD., priority 2014, dated 2018):
“Also recorded” adds a separate entry of the source. Read-outs that look alike come from different tables or passages of the source.

What was measured:
TSPO = TSPO (Homo sapiens (Human), UniProt P30536); format: binding; details: displacement of [3H]PK 11195 from TSPO
Method: Briefly, the assay utilizes radioactive standard ligand [^3H] PK 11195 (1-(2-chlorophenyl)-N-methyl-N-(1-methyl-propyl)-3 isoquinolinecarboxamide), and measures the ability of the compounds of the invention to displace standard ligand in binding to TSPO. Total radioactive binding was determined by measuring the radioactivity of the radioactive ligand-receptor complex, obtained in the reaction of radioactive standard with the TSPO. Radioactive standard and the examined compound were added to the TSPO and after some incubation time the radioactivity of the resulting ligand-receptor complexes was measured with the help of a […]. This radioactivity indicates the binding of the radioactive standard to TSPO. […] This can be expressed as the half maximal inhibitory concentration (IC50), which is a measure of the effectiveness of a compound in inhibiting biological or biochemical function, in this case inhibiting binding of standard radioactive ligand binding to the TSPO. A derivative of the IC50 is the Ki, which is the calculated binding affinity of the novel compound to the TSPO.
Binding to TSPO was evaluated using a [^3H]PK 11195 radio-assay, as described above.

U118MG cells [1] = experiment: Protection against cell death induced by glutamate in U118MG cell culture; format: cell-based, human
Method: Cell cultures of various human glial type cell lines (T98G, U87MG, A172, U118MG), as well as human neuronal type cell lines SH-SY 5Y and Be(2)-C were used to test the new compounds. In addition, the rat glioma cell line C6 was used. PC12 cells originating from rats were used as another cell line displaying neuronal characteristics. The applicants also have produced, by genetic manipulation, a modified rat C6 glial cell strain and a modified human U118MG glial type cell strain, both under-expressing the TSPO, which allows to study TSPO specific effects, including of the compounds of the invention, which can be done according to methods described previously (Weisinger et al. Biochemistry. 2004; 43:12315-21; Levin et al. 2005; Zeno et al., 2009).
The protective capabilities of the compounds of the invention and involvement of the TSPO were tested in cell culture, using cell lines of glial and neuronal type, cultured and testing according to standard methods (Kugler et al. 2008; Zeno et al. 2009; Dadon-Nachum et al. Stem Cell Rev. 2011; 7:664-71). Furthermore, primary cell cultures are also used (Banker, G. et al. Culturing Nerve Cells, 2nd Edition, The MIT Press (1998). Treatments included: (1) exposure to glutamate (35 mM), Abeta(1-42), NH4Cl, CoCl2, and nitric oxide (NO) donors, in order to mimic particular aspects of neurodegeneration; (2) treatment with the novel compounds and with traditional TSPO ligands as comparative treatment; and (3) TSPO knockdown by genetic manipulation.
(§1) Techniques and parameters assayed are summarized here: Total protein levels (Bradford. Anal Biochem. 1976; 72:248-54); TSPO ligand binding assays (Kugler et al. 2008; Levin et al. 2005; Danovich et al. Eur Neuropsychopharmacol. 2008; 18:24-33) cell death, including apoptosis and necrosis and related molecular biological processes (Soustiel et al. Neuropathol Appl Neurobiol. 2008; 34:412-23; Soustiel et al. Exp Neurol. 2008; 214:201-8; Zeno et al. 2009); mitochondrial transmembrane potential collapse (Chelli et al. Biochem Pharmacol. 2004; 68:125-34; Kugler et al. 2008; Zeno et al., 2009; Shargorodsky et al. Apoptosis. 2012; 17:647-65), reactive oxygen species (ROS) generation as a measure of oxidative stress (Veenman et al. 2008; Zeno et al. 2009); TSPO knockdown (Levin et al. 2005; Zeno et al. 2009); expression levels of mitochondrial TSPO and associated proteins (Veenman et al. 2002; Levin et al. 2005; Veenman et al. 2008); gene expression with RT-PCR and microarray analysis (Bode et al. 2012; Veenman et al. 2012). Parameters of inflammation, immune response, migration, and the cell cycle are also tested. All these approaches can also be applied for quality control of the compounds.
The compounds of the invention protect against cell death induced by glutamate in cell culture of U118MG cells of astrocytic origin (FIGS. 1, 2, 3 and 8) or SH SY 6Y cells of neuronal origin (FIG. 4). […] In the control group, 35 mM of glutamate killed ˜60% of the cells.
The experimental setup is explained using FIG. 8B as an example: • 1. Control: Cell death levels are taken as 0% • 2. Glu: Cell death levels induced by glutamate are over 50% • 3. […] Glu+Cpd 5: When Cpd 5 is given as a treatment to counteract cell death induced by glutamate, increasing concentrations of Cpd 5 reduce cell death levels from over 50% to less than 5%.

U118MG cells [2] = experiment: ROS generation at mitochondrial levels induced by glutamate (NAO dye); format: cell-based, human
From the text: as §1
Next, the fluorescent dye 10-N-Nonyl-Acridine Orange (NAO) was applied to measure reactive oxygen species (ROS) generation at mitochondrial levels. […]

Sequence of TSPO (P30536 whole entry): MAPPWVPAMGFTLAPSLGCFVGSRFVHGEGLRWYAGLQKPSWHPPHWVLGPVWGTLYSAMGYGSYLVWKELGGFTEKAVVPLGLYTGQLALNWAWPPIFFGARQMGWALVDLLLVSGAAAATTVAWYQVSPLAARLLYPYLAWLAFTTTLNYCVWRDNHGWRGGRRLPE

Compound: CCN(C)C(=O)Oc1nc(-c2ccccc2)nc2ccccc12 [Compound 1, 2-phenylquinazolin-4-yl ethyl(methyl)carbamate]
- Ki (TSPO): ~60 nM
- protection against cell death induced by glutamate (U118MG cells [1]; U118MG cells, 35 mM glutamate, compound 1-100 μM): significantly protects; also recorded: protect better and more consistently; also recorded: significantly reduces glutamate-induced cell death levels
- Protection against glutamate-induced cell death (U118MG cells [1]; cell culture, grade in words): Excellent
- lethal effect of compound by itself (U118MG cells [1]; compound alone, no glutamate): only very little lethal effect by itself
- ROS generation at mitochondrial levels induced by glutamate (U118MG cells [2]): prevents ROS generation
- ROS generation at mitochondrial levels induced by glutamate (U118MG cells [2]; listed as Cpd 1): attenuated
